Reference: US6635437B2, “Compounds, compositions and methods for generating chemiluminescence with phosphatase enzymes” (Lumigen, Inc., priority 1996, dated 2003)
One block for each compound: values may come before it.

Tests used:
[1] = system: alkaline phosphatase (AP); assay: Chemiluminescent detection of alkaline phosphatase with acridan phosphate and surfactant enhancer; format: biochemical; conditions: for Rel. (S/B normalized to the results obtained with no enhancer) / S/B (ratio of light intensities with AP and with no enzyme): acridan 1 with 10^−16 mol of AP, each surfactant at the concentration producing the greatest enhancement; for S/B (ratio of maximum light intensity to light intensity in the absence of enzyme): 0.33 mM 1, 0.01 mg/mL Enhancer A
[2] = system: alkaline phosphatase (AP); assay: Chemiluminescent detection of alkaline phosphatase with acridan phosphate and cationic aromatic compound (CAC); format: biochemical; conditions: for S at 36 min (plateau intensity): 21 mM CAC in DMSO diluted 1:1000 into compound 5 in 0.1 M tris pH 8.8
[3] = system: acid phosphatase (AcP); assay: Chemiluminescent detection of acid phosphatase and inhibition by tartrate; format: biochemical
Method: The quenching of emission was not due to a reduction of the pH since addition of 10 μL of citrate buffer caused only a 25% reduction in light intensity.

[4] = system: acid phosphatase (AcP); assay: Chemiluminescent detection of AcP by pH change; format: biochemical; conditions: 0.33 mM 1, tris pH 7.0, 0.1% BSA, 0.01% Enhancer A, 3 μL AcP, 8 min; 1 N NaOH injected, integrated 4 min
Method: An alternate way to detect the light emitted by reaction of AcP with 1 is to incubate a reagent composition containing 1 and enhancer with AcP at a first pH and then rapidly raise the pH by injecting a solution of a strong base to cause a burst of light emission. A reagent composition (100 μL) comprising 0.33 mM acridan phosphate 1 in 0.1 M tris buffer, pH 7.0, 0.1% BSA and 0.01% Enhancer A was reacted with 3 μL of AcP (Sigma AcP LIN-TROL, reconstituted to 2.0 mL, 83 U/L) for 8 min at ambient temperature in a test tube. A solution of 1 N NaOH (50 μL) was injected and light intensity integrated for 4 min.

[5] = system: AP-labeled antibody; assay: Western blot assay of human transferrin using PVDF membrane
Source text: The chemiluminescent reaction of the present invention provides a particularly effective reagent for detection of AP conjugates on polyvinylidene difluoride (PVDF) membranes, nylon membranes and on nitrocellulose filters and membranes.
provides an intense luminescence which rises to a maximum level nearly instantly and maintains essentially constant intensity for at least 2 days. Detection on film and optimizing image intensity are thus particularly convenient.
Compositions of the present invention were used to detect and quantify a protein, human transferrin in a Western blot with an AP-labeled antibody on a polyvinylidene difluoride (PVDF) membrane. Dilutions of transferrin containing from 5000, 1000, 180, 30 and 5 pg, respectively, of protein were electrophoresed and transferred to PVDF membranes (Millipore, Bedford, Mass.). The transferrin bands were blocked with and then reacted sequentially with goat anti-human transferrin and rabbit anti-goat-AP conjugate. The membranes were soaked briefly with reagents comprising 0.2 M 221 buffer, pH 9.6 containing 0.88 mM MgCl2, 0.66 mM acridan phosphate 1 and 0.1 to 1 mg/mL of Enhancer A. The membranes were placed between transparent plastic sheets and exposed to X-ray film. […] The light produced using these compositions with varying amounts of the enhancer led to intense emission which could be imaged for at least 2 weeks. […]

[6] = system: AP-labeled antibody; assay: Western blot using nitrocellulose membrane; conditions: 0.33 mM 1, pH 9.6, 0.5 mg/mL Enhancer A
Method: A Western blot assay according to the procedures in Example 27 was performed using nitrocellulose membrane as the solid phase. Transferrin standards in the range of 5000-30 pg were used.

[7] = 4×10^−16 mol AP, room temperature

Compound: 1-trioctylphosphoniummethyl-4-tributylammonium-methylbenzene, mixed bromide chloride salt [Surfactant G]
Rel. (S/B normalized to the results obtained with no enhancer) [1]: 4.5 | S/B (ratio of light intensities with AP and with no enzyme) [1]: 63

Compound: 9-(2,6-Dimethylphenylthiophosphoryloxymethylidene)-10-methylacridan. disodium salt [Compound 9]
S at 36 min (plateau intensity) [2, 7]: 781

Compound: 9-(2′,2′,2′-Trifluoroethylthiophosphoryloxymethylidene)-10-methylacridan, disodium salt [Compound 11]
S at 36 min (plateau intensity) [2, 7]: 9.3

Compound: 9-(3,5-Dimethylphenoxy)phohosphoryloxymethylidene)-10-methylacridan. disodium salt [Compound 2]
S at 36 min (plateau intensity) [2, 7]: 45.3

Compound: 9-(4-Fluorophenylthiophosphoryloxymethylidene)-10-methylacridan, disodium salt [Compound 7]
time to stable plateau of chemiluminescence intensity ([2]; 0.66 mM 7, 6.4 μM lucigenin, SDS, Na2SO3, TWEEN 20, tris pH 8.8, 8×10^−16 mol AP, room temperature): under 5 sec | S at 36 min (plateau intensity) [2, 7]: 61.6

Compound: 9-(4-Methoxyphenylthiophosphoryloxymethylidene)-10-methylacridan, disodium salt [Compound 8]
S at 36 min (plateau intensity) [2, 7]: 19.1

Compound: 9-(Phenylthiophosphoryloxymethylidene)-2,7-difluoro-10-methylacridan, disodium salt [Compound 10]
S at 36 min (plateau intensity) [2, 7]: 21.1

Compound: C[n+]1c2ccccc2c(-c2c3ccccc3[n+](C)c3ccccc23)c2ccccc21.O=[N+]([O-])[O-].O=[N+]([O-])[O-] [CAC 1, N,N′-dimethylbiacridinium dinitrate, reference compound]
effect of lucigenin on light intensity ([2]; 6.4 μM lucigenin, 0.66 mM 5, 0.1 M tris pH 8.8, 8×10^−16 mol AP, 25° C.): much higher light intensity | signal (S) versus control without lucigenin ([2]; 6.4 mM to 6.4 nM lucigenin, 0.66 mM 5, tris pH 8.8, 4×10^−16 mol AP, 3.5 min, room temperature): higher signal (S) than the control

Compound: CN1c2ccccc2C(=C(Oc2ccccc2)OP(=O)([O-])[O-])c2ccccc21.[Na+].[Na+] [Compound 1, 9-(Phenoxyphosphoryloxymethylidene)-10-methylacridan, disodium salt]
time to maximum chemiluminescence intensity ([1]; 0.33 mM 1, 0.1 M tris pH 8.5, 0.88 mM Mg, 0.01 mg/mL Enhancer A, 10^−13 mol AP, 25° C.): 2 min | chemiluminescence on reaction with AP ([1]; composition of Example 14 (0.1 M tris pH 8.5, Enhancer A), AP, 25° C.): easily measurable blue chemiluminescence | S/B (ratio of maximum light intensity to light intensity in the absence of enzyme) ([1]; pH 7.0, tris, 8×10^−16 mol AP, 25° C.): 37 | S/B (ratio of maximum light intensity to light intensity in the absence of enzyme) ([1]; pH 7.5, tris, 8×10^−16 mol AP, 25° C.): 144 | S/B (ratio of maximum light intensity to light intensity in the absence of enzyme) ([1]; pH 8.0, tris, 8×10^−16 mol AP, 25° C.): 273 | S/B (ratio of maximum light intensity to light intensity in the absence of enzyme) ([1]; pH 8.5, tris, 8×10^−16 mol AP, 25° C.): 280 | S/B (ratio of maximum light intensity to light intensity in the absence of enzyme) ([1]; pH 9.0, 221 buffer, 8×10^−16 mol AP, 25° C.): 200 | S/B (ratio of maximum light intensity to light intensity in the absence of enzyme) ([1]; pH 9.0, tris, 8×10^−16 mol AP, 25° C.): 195 | S/B (ratio of maximum light intensity to light intensity in the absence of enzyme) ([1]; pH 9.5, 221 buffer, 8×10^−16 mol AP, 25° C.): 87 | S/B (ratio of maximum light intensity to light intensity in the absence of enzyme) ([1]; pH 10.0, 221 buffer, 8×10^−16 mol AP, 25° C.): 13 | S/B (ratio of maximum light intensity to light intensity in the absence of enzyme) ([1]; pH 10.5, 221 buffer, 8×10^−16 mol AP, 25° C.): 1.3 | time to maximum chemiluminescence intensity ([1]; reagent composition of Example 14, 8×10^−16 mol AP, 25° C.): ca. 2 min | time course of chemiluminescence with AcP ([3]; 0.33 mM 1, 0.1 M tris pH 7, 0.01-0.1% Enhancer A, ambient temperature): reached maximum intensity nearly instantaneously and remained nearly constant for several minutes | light intensity relative to reagent blank [4]: three times the reagent blank | time for which emission could be imaged ([5]; 0.66 mM 1, 0.2 M 221 buffer pH 9.6, 0.1 to 1 mg/mL Enhancer A, PVDF): at least 2 weeks | time for which luminescence maintains essentially constant intensity ([5]; antibody-AP conjugate on PVDF membrane): at least 2 days | period over which detection could be performed [6]: over several hours | S at 36 min (plateau intensity) [2, 7]: 2602

Compound: O=S([O-])[O-].[Na+].[Na+] [Na2SO3, sodium sulfite]
background signal (B) in the absence of AP versus control ([2]; Na2SO3 1.0 mg/mL to 1.0 μg/mL in Reagent A): lower background signal (B) | signal (S) versus control ([2]; Na2SO3 1.0 mg/mL to 1.0 μg/mL in Reagent A, 4×10^−16 mol AP, 3.5 min, room temperature): higher signal (S) than the control

Compound: CCCCCCCC[P+](CCCCCCCC)(CCCCCCCC)Cc1ccc(C[P+](CCCC)(CCCC)CCCC)cc1.[Cl-].[Cl-] [Surfactant E, 1-trioctylphosphoniummethyl-4-tributylphosphonium-methylbenzene dichloride]
Rel. (S/B normalized to the results obtained with no enhancer) [1]: 11.6 | S/B (ratio of light intensities with AP and with no enzyme) [1]: 162

Rel. (S/B normalized to the results obtained with no enhancer) [1]: 1.9 | S/B (ratio of light intensities with AP and with no enzyme) [1]: 26 | rise to peak signal versus control without SDS ([2]; SDS 10 mg/mL to 10 μg/mL, 0.66 mM 5, tris pH 8.8, 4×10^−16 mol AP, room temperature): faster rise to peak signal
Compound: CCCCCCCCCCCCOS(=O)(=O)[O-].[Na+] [Surfactant H, sodium dodecyl sulfate]

Compound: CCCCCCCCCCCCCCCC[N+](C)(C)C.[Br-] [Surfactant I, cetyltrimethylammonium bromide]
Rel. (S/B normalized to the results obtained with no enhancer) [1]: 1.7 | S/B (ratio of light intensities with AP and with no enzyme) [1]: 24

Compound: CCCCCCCC[N+](CCCCCCCC)(CCCCCCCC)Cc1ccc(C[N+](CCCC)(CCCC)CCCC)cc1.[Cl-].[Cl-] [Surfactant J, 1-trioctylammoniumnmethyl-4-tributylammoniummethylbenzene dichloride]
Rel. (S/B normalized to the results obtained with no enhancer) [1]: 1.2 | S/B (ratio of light intensities with AP and with no enzyme) [1]: 17

effect of addition of AP on chemiluminescence ([1]; composition as Example 14 with the ester in place of 1): no effect
Compound: CN1c2ccccc2C(C(=O)Oc2ccccc2)c2ccccc21 [phenyl 10-methylacridan-9-carboxylate, reference compound]

effect on light emission (inhibition of enzyme activity) ([3]; addition of 5 μL of 0.04 M tartrate in citrate buffer (0.09 M, pH 4.8)): complete extinction of light emission
Compound: O=C(O)C(O)C(O)C(=O)O (stereo not shown) [tartrate, reference compound]

Compound: (E, Z)-9-(2,6-Dimethylphenoxy)phosphoryloxymethylidene)-3-chloro-10-methylacridan, disodium salt [Compound 4]
S at 36 min (plateau intensity) [2, 7]: 4645

Compound: (E,Z)-9-(Phenoxy)phosphoryloxymethylidene)-3-methoxy-10-methylacridan, disodium salt [Compound 3]
S at 36 min (plateau intensity) [2, 7]: 5963

Compound: (E,Z)-9-(Phenoxy)phosphoryloxymethylidene)-12-methylbenz[c]acridan, disodium salt [Compound 6]
S at 36 min (plateau intensity) [2, 7]: 72.3

Compound: bovine serum albumin: the protein bovine serum albumin, added to the detection reagent
effect on duration of light emission ([3]; added to the detection reagent at 0.1%): prolonged the duration of light emission significantly

Compound: polyoxyethylene(20)sorbitan monolaurate [Surfactant F]
Rel. (S/B normalized to the results obtained with no enhancer) [1]: 8.6 | S/B (ratio of light intensities with AP and with no enzyme) [1]: 120 | effect on duration of chemiluminescence ([2]; TWEEN 20 1.0% to 0.001%, Reagent A with 21 μM lucigenin, lacking Na2SO3, 4×10^−16 mol AP): effective in extending the duration of chemiluminescence at or near maximum intensity
